No end group written: not given here.
How the values were obtained:
[1] = system: PMN activated by ultrafiltered tripeptide chemoattractants; test: Polarization assay: inhibition of PMN polarization activated by alkali-degraded rabbit corneal ultrafiltrate; assay type: cell-based, human
Protocol: (§1) Following the technique of Ferrante and Thong^13, polymorphonuclear leukocytes were isolated from fresh heparinized human whole blood by centrifugation on Hypaque-Ficoll (density=1.114) according to a described method^14. […] Purified polymorphonuclear leukocytes were used in the polarization assay. All incubation mixtures were maintained between an osmolality of 280 to 320, a pH range of 7.2 to 7.6, 15 mM phosphate buffer, and 50 μM Ca^2+ and 50 μM Mg^2+.
(§2) The polarization assay^15 was performed in a blind fashion. This assay was used to determine the polymorphonuclear leukocyte response to chemoattractants and inhibitors by measuring the frequency and degree of cellular shape change. Briefly, 2×10^5 polymorphonuclear leukocytes were mixed with preincubated synthetic complementary peptides and chemoattractants in a reaction chamber (total volume=100 μl) at 37° C. for 5 min. At the end of the incubation period an aliquot was collected and mixed with an equal volume of 4% glutaraldehyde for microscopic observation. The remaining volume of each cell suspension was immediately centrifuged at 15,000× g for 5 seconds to remove cells. […] Polymorphonuclear leukocytes in each sample were observed microscopically and assigned scores of 0 (resting=spherical cell with a smooth membrane), 1 (activated=irregular cell with uneven membranes) or 2 (polarized=cell length≧width×2). Scores of 100 polymorphonuclear leukocytes for each sample were added to produce a polarization index. A dose response was performed for each chemoattractant. A concentration of each chemoattractant was chosen from the linear portion of each dose response curve and used as the positive control. Negative control samples consisted of polymorphonuclear leukocytes in HBSS only. […] The Student's t-test (unpaired) was used to analyze the differences in the mean polarization response between polymorphonuclear leukocytes activated with the chemoattractant in the absence or presence of complementary peptides.

[2] = system: N-acetyl-PGP activated PMN; test: Polarization assay: inhibition of N-acetyl-PGP activated PMN polarization; assay type: cell-based, human; conditions: for inhibitory properties against N-acetyl-PGP, fold less than the RTR dimer: comparison of ID50 values
Protocol: as §1, §2

[3] = system: alkali-injured rabbit eye; test: Alkali-injury model, corneal ulceration; assay type: in vivo
Protocol: Animals were maintained and treated in full compliance with the Association for Research in Vision and Ophthalmology (ARVO) Resolution on the Use of Animals in Research. Forty-eight New Zealand Dutch strain albino rabbits (Myrtles Rabbitry, Thompson Station, Tenn., U.S.A.) weighing 2.0 to 2.5 kg were anesthetized with ketamine HCl (12 mg/kg) and xylazine (7.5 mg/kg). Two drops of topical proparacaine (Allergan, Hormigueros, Puerto Rico) were placed in the right eye of each rabbit. Following ocular proptosis, a 12 mm plastic well was centered on the cornea and 0.4 ml of 1 N NaOH instilled into the well and left for a period of 35 sec. The alkali was aspirated and the well irrigated with 10 ml of physiological saline. Erythromycin ointment (0.5%) was applied two times a day and study medications given by the technique of Fraunfelder. Double blind examinations (slit lamp and dissecting microscopy) were conducted on Monday, Wednesday and Friday with photographs on Wednesday. Evaluation was made for the presence and size of epithelial defects, corneal ulceration, perforation and vascularization. Animals were randomly subdivided into two groups of 16 eyes each: 1) Phosphate buffered saline (PBS) control and 2) 800 μM (D)-RTR tetramer in PBS or 1.5 mM (L)-RTR tetramer in PBS alternating every hour. Each animal received one drop of the appropriate medication every hour for 14 hours a day for 33 days and dropping was discontinued until the end of the experiment on day 42.

resting PMNs = test: Polarization assay: substance alone on resting PMNs (agonist activity, chemoattractant response); assay type: cell-based, human; conditions: none up to the given concentration
Protocol: (§3) Following the technique of Ferrante and Thong^13, polymorphonuclear leukocytes were isolated from fresh heparinized human whole blood by centrifugation on Hypaque-Ficoll (density=1.114) according to a described method^14. Isolated polymorphonuclear leukocytes (96-99% viability) were resuspended in HBSS with 15 mM phosphate buffer at room temperature and gently agitated on a shaker. The purity of this cell suspension was ≧85% polymorphonuclear leukocytes, ≦5% mononuclear cells and platelets, with the remaining percentage consisting of red blood cells. Purified polymorphonuclear leukocytes were used in the polarization assay. All incubation mixtures were maintained between an osmolality of 280 to 320, a pH range of 7.2 to 7.6, 15 mM phosphate buffer, and 50 μM Ca^2+ and 50 μM Mg^2+.
The polarization assay^15 was performed in a blind fashion. This assay was used to determine the polymorphonuclear leukocyte response to chemoattractants and inhibitors by measuring the frequency and degree of cellular shape change. Briefly, 2×10^5 polymorphonuclear leukocytes were mixed with preincubated synthetic complementary peptides and chemoattractants in a reaction chamber (total volume=100 μl) at 37° C. for 5 min. At the end of the incubation period an aliquot was collected and mixed with an equal volume of 4% glutaraldehyde for microscopic observation. The remaining volume of each cell suspension was immediately centrifuged at 15,000× g for 5 seconds to remove cells. The resulting supernatant was analyzed for lactic dehydrogenase activity.^16 All incubations generated lactate dehydrogenase activity correlating with <5% cell death. Polymorphonuclear leukocytes in each sample were observed microscopically and assigned scores of 0 (resting=spherical cell with a smooth membrane), 1 (activated=irregular cell with uneven membranes) or 2 (polarized=cell length≧width×2). Scores of 100 polymorphonuclear leukocytes for each sample were added to produce a polarization index. A dose response was performed for each chemoattractant. […]

LTB4 activated PMN = test: Polarization assay: inhibition of LTB4 activated PMN polarization; assay type: cell-based, human
Protocol: LTB4 was dissolved in ethanol and diluted with HBSS (pH 7.3) to a final ethanol concentration of 0.001%. Synthetic complementary peptides and synthetic chemoattractants were dissolved in HBSS (pH 7.3). When necessary, the osmolality was adjusted between 280 and 320 mOsm by adding a small amount of distilled water.
as §3
The polarization assay^15 was performed in a blind fashion. […] The resulting supernatant was analyzed for lactic dehydrogenase activity.^16 All incubations generated lactate dehydrogenase activity correlating with <5% cell death. […]

[4] = day 42, 16 eyes, topical drops to day 33

Substance | inhibition of PMNs activated by the ultrafiltered tripeptide chemoattractants, in words [1] | affinity for N-acetyl-PGP, fold greater than the RTR monomer [2] | TOTAL ULCERS End of expt (day 42) (number) ([3]; 16 eyes, day 42) | TOTAL ULCERS End of expt (day 42) (percent of eyes) ([3]; 16 eyes, day 42) [%] | TOTAL ULCERS During expt (number) ([3]; 16 eyes, during experiment) | TOTAL ULCERS During expt (percent of eyes) ([3]; 16 eyes, during experiment) [%] | incidence of corneal ulcers after alkali-injury, in words ([3]; compared to PBS group) | number of ulcers ([3]; day 33, 16 eyes, 800 μM (D)- and 1.5 mM (L)-RTR tetramer drops alternating every hour) [ulcers] | ULCER DEPTH: Anterior (eyes) [3, 4] | ULCER DEPTH: Descemetocele (eyes) [3, 4] | ULCER DEPTH: Middle (eyes) [3, 4] | ULCER DEPTH: No Ulcer (eyes) [3, 4] | ULCER DEPTH: Perforation (eyes) [3, 4] | ULCER DEPTH: Posterior (eyes) [3, 4] | Agonist Activity (resting PMNs) | antagonism of LTB4 activation of PMNs, in words (LTB4 activated PMN) | inhibition of N-acetyl-PGP activated PMN polarization, in words [2] | inhibitory properties against N-acetyl-PGP, fold less than the RTR dimer [2] [fold]
((H2N-Arg-Thr-Arg-Gly-Gly)2-Lys)2-Lys-Ala-CONH2 (H-RTRGG; also: tetrameric Lys-branched, on Lys-Ala-CONH2 core) [RTR tetramer] | inhibited | 10,000 fold | 6 | 37.5 | 7 | 43.8 | statistically significant reduction in the frequency of corneal ulceration | 4 | 4 | 1 | 0 | 9 | 0 | 2 | None, ≦ 8 mM | no effect on LTB4 | – | –
RTRGG | inhibited | – | – | – | – | – | – | – | – | – | – | – | – | – | None, ≦ 40 mM | – | only antagonistic at millimolar concentrations | 20
Arg-Thr-Arg [RTR] | inhibited | – | – | – | – | – | – | – | – | – | – | – | – | – | None, ≦ 40 mM | – | only antagonistic at millimolar concentrations | 20

Reference: patent US20020107202A1, “Synthetic complementary peptides and ophthalmologic uses thereof” (priority 1999, published 2002)
